Assays:
[1] = system: M2 versus M3 muscarinic receptor subtype; conditions: cited from earlier work
[2] = system: M2 versus M1 muscarinic receptor subtype; conditions: cited from earlier work
[3] = system: canines subjected to heart failure (HF); test: Vagal stimulation induced ERP shortening in canine heart failure model (rapid ventricular pacing); format: in vivo; conditions: left atrium, in presence of AChE inhibitor, without it 10±4
Experimental: Effective Refractory Periods. Effective refractory periods (ERPs) were obtained from 5 distributed sites from the PV, 6 sites from the PLA, and 4 sites from the LAA during each autonomic intervention. For each ERP, the pacing protocol consisted of a drive train (S1) of eight beats with a cycle length of 400 ms followed by an extrastimulus (S2). The S2 was decremented by 10 ms until loss of capture. […] Pacing was performed at an output current twice the threshold required for consistent capture of the tissue. The mean ERP was used as the representative ERP for each of the three sites as well as the entire left atrium.
Canines were subjected to heart failure (HF) by rapid ventricular pacing (240/min for 3 weeks). Vagal stimulation induced ERP shortening (VS-ΔERP)(ms) was assessed in the test canines as well as controls at multiple sites in the LA. VS-ΔERP was reassessed in the presence of an acetylcholineesterase (AChE) inhibitor (physostigmine). Explanted LA were subjected to 1) ELISA for acetylcholinesterase (AChE) activity, 2) AChE immunostaining and 3) radioactive M2 receptor binding assay.

[4] = system: canine model, vagal stimulation; test: Canine arrhythmia model: ERP shortening and AF induced by vagal stimulation; format: in vivo; conditions: 20 microgram/kg single iv, 10-15 minutes after administration
Experimental: Canine Arrhythmia Model. […] Bioorg. Med. Chem. 2007, 15, 2312-2321), was evaluated for its ability to decrease effective refractory period and atrial fibrillation induced by vagal stimulation. Open chest electrophysiological mapping was performed in a canine model as previously described (Arora, R. et al. Am. J. Physiol. Heart Circ. Physiol. 2008, 294, […]-[…]). […] At baseline, effective refractory periods (ERPs) were obtained at multiple sites on each plaque in the absence and presence of vagal stimulation (VS). AF inducibility was also assessed under each of these conditions i.e. with and without VS. After baseline measurements had been made, methoctramine tetrahydrochloride hydrate (20 microgram/kg), dissolved in normal saline, was administered via a single iv injection. 10-15 minutes after methoctramine administration, ERPs and AF inducibility were reassessed in the absence and presence of VS.

| Structure (SMILES) | selectivity for M2 versus M3 [1] [fold] | selectivity for M2 versus M1 [2] [fold] | Vagal stimulation induced ERP shortening (VS-ΔERP) [3] [ms] | Vagal induced AF [4] | Vagal induced ERP shortening ([4]; baseline 40 ms, p<0.01) [ms] |
| --- | --- | --- | --- | --- | --- |
| Cc1cccc(C(=O)N2CCC(N3CCC(Cc4ccc(S(=O)(=O)c5cccc(Cl)c5)cc4)CC3)CC2)c1N [Sch 211803] | 786 | 734 |  |  |  |
| CNC(=O)Oc1ccc2c(c1)[C@]1(C)CCN(C)[C@@H]1N2C [physostigmine] |  |  | 28 ± 4 |  |  |
| Cc1ccc(O)c([C@H](CCN(C(C)C)C(C)C)c2ccccc2)c1 [tolterodine] | 1.7 |  |  |  |  |
| CC(C)N(CC[C@H](c1ccccc1)c1cc(CO)ccc1O)C(C)C | 2 |  |  |  |  |
| COc1ccncc1CN1CCC(N(CCCCCCCN2CC[C@@H](C(C(N)=O)(c3ccccc3)c3ccccc3)C2)C(C)C)CC1 [TD-6301] | 36 | 31 |  |  |  |
| COc1ccccc1CNCCCCCCNCCCCCCCCNCCCCCCNCc1ccccc1OC [methoctramine] | 219 | 35 |  | markedly decreased | 10 |

— patent US20190076417A1, “COMPOSITIONS AND METHODS FOR TREATING OR PREVENTING ATRIAL FIBRILLATION” (Northwestern University, priority 2010, published 2019)
